Test results from patent US5521216A, “Chromone derivative, and aldose reductase inhibitor comprising said compound as active ingredient” (Tsumura & Co., priority 1992, dated 1996).

What was measured:
Aldose reductase [1] = biological target: T1, Aldose reductase (Rattus norvegicus, UniProt P07943); test: Aldose reductase activity measurement (in vivo), sorbitol in sciatic nerves of STZ diabetic rats; parameters: species or system Wistar male rats; conditions: sciatic nerve sorbitol, oral for 2 weeks, 100 mg/kg (other compounds stated at 30 mg/kg)
T1 construct: The crystalline lenses were homogenized in 135 mM sodium-potassium-phosphate buffer; from tissue; host or cells: crystalline lens of 6 week-old male Wistar rats (30,000 rpm supernatant)
Experimental: <Aldose reductase activity measurement (in vivo)>
A solution of streptozotocin (STZ) in 10 mM citrate buffer (pH 4.5) was administered intravenously to the tails of 6 week-old Wistar male rats in a dosage of 65 mg/kg. 48 hours thereafter, blood was collected from the carotid arteries of the rats. Rats with a blood sugar level of higher than 200 mg/dl were classified as diabetic rats, among which rats with a persistent high level of blood sugar were employed in the experiment. The blood sugar level was determined by the glucose oxidase method. […]
After 2-week administration, the sciatic nerves were removed from the rat under ether anesthesia, then weighed, and stored at -20° C.
The content of sorbitol in the sciatic nerves was determined as follows.
The sciatic nerves were extracted at 100° C. for 20 min. with 1 ml purified water containing 10 μg/ml arabinitol, and then 0.2 ml of 0.2M barium hydroxide and 0.2 ml of 0.19M zinc sulfate were added thereto. The sample was centrifuged (3000 rpm, 30 min.) and the supernatant was evaporated to dryness. The residue thus obtained was trimethysilylated and was then analyzed by gas chromatography.
Sorbitol is an intermediate which occurs upon the conversion of glucose into fructose by aldose reductase and is accumulated together with fructose in the crystalline lenses and sciatic nerves particularly under a high level of blood sugar. […]

Aldose reductase [2] = biological target: T1, Aldose reductase; test: Aldose reductase activity measurement (in vitro), rat crystalline lens enzyme, NADP fluorescence; format: biochemical, Wistar male rats; conditions: 20 mM glucose substrate, 30 min, 30° C., pH 7.0, read-out: 50% inhibition concentration [IC50 (M)]
Experimental: <Aldose reductase activity measurement (in vitro)>
6 week-old Wistar male rats were sacrificed under ether anesthesia and immediately the crystalline lenses were scissored and stored at -20° C.
The crystalline lenses were homogenized in 135 mM sodium-potassium-phosphate buffer, pH 7.0, and centrifuged for 30 min. at 30,000 rpm. The supernatant was used as an aldose-reductase solution. All the above procedures were carried out at 4° C. and the enzyme solution was stored at -20° C.
Aldose reductase activity was determined according to the method as described by Dufrane et al. (Biochemical Medicine, 32, 99-105 (1984)), as follows.
100 μl of the above enzyme solution and 100 μl of a sample solution prepared by dissolving a compound obtained in the following examples to a final concentration of from 1.0×10^-5 to 4.0×10^-7 M in dimethylsulfoxide (DMSO) were added to 800 μl of 135 mM sodium-potassium-phosphate buffer, pH 7.0, containing 100 mM lithium sulfate, 0.03 mM NADPH (reduced nicotinamide adenine dinucleotide phosphate), and 20 mM glucose as a substrate. The sample was allowed to react for 30 min. at 30° C. Then the reaction was stopped by addition of 0.3 ml of 0.5N hydrochloric acid. By adding 1 ml of 6N sodium hydroxide containing 10 mM imidazole, the NADP (oxidized nicotinamide adenine dinucleotide phosphate) formed in the above reaction was converted into a fluorescent substance, and 30 min. thereafter, the sample was measured for fluorescence intensity at the fluorescence wavelength of 460 nm (excitation wavelength: 360 nm) using fluorescence photometer F-4000 (manufactured by Hitachi, Ltd.) at room temperature. A sample containing DMSO in place of the present compound was used as a control group, and its fluorescence intensity was determined in the same manner as described above.
Aldose reductase is an enzyme that converts DL-glyceraldehyde or glucose into polyol in the presence of […] as a coenzyme, and as the reaction proceeds, NADPH is converted into NADP.

| SMILES | Repression (%) (Aldose reductase [1]) | IC50 (Aldose reductase [2]) [M] |
| --- | --- | --- |
| COc1c(O)cc2oc(Oc3ccc(O)cc3)cc(=O)c2c1O [Capillarisin] | 18.9 | – |
| CC(C)Oc1cc(OC(C)C)c2c(=O)cc(Sc3ccc(O)cc3)oc2c1 [Example 1, 2-(4-hydroxyphenylthio)-5,7-di-isopropoxychromone] | – | 1.8e-08 |

Next, values leading:

| Repression (%) (Aldose reductase [1]) | IC50 (Aldose reductase [2]) [M] | SMILES |
| --- | --- | --- |
| – | 8e-08 | COc1cc(OC(C)C)cc2oc(Sc3ccc(O)cc3)cc(=O)c12 [Example 6, 2-(4-hydroxyphenylthio)-7-isopropoxy-5-methoxychromone] |
| – | 2.3e-07 | CC(C)Oc1cc(O)c2c(=O)cc(Sc3ccc(O)cc3)oc2c1 [Example 5, 5-hydroxy-2-(4-hydroxyphenylthio)-7-isopropoxychromone] |
| – | 3.2e-07 | O=c1cc(Sc2ccc(O)cc2)oc2cc(O)cc(O)c12 [Example 4, 5,7-dihydroxy-2-(4-hydroxyphenylthio)chromone] |
